Assay results reported in patent US10420751B2, “Methods of treating inflammatory bowel disease with AMD3100 and tacrolimus” (priority 2009, dated 2019).
Read-outs that look alike come from different tables or passages of the source.

Experiments:
[1] = system: kidney allograft (DA to Lewis); test: Orthotopic kidney transplantation, acute rejection model: survival; assay type: in vivo, rat; conditions: FK 0.05 mg/kg and/or AMD 1 mg/kg s.c.; controls rejected within 10 days
Procedure: Specifically, the DA to Lewis model of acute rejection was studied. Briefly, donor kidneys obtained from male DA rats were flushed with 10 ml cold saline and were stored at 4° C. while the recipient to be prepared. Total cold ischemic time was no longer than 40 minutes. Lewis male recipients were transplanted following left native nephrectomy. The donor renal artery, vein and ureter were anastomosed to the recipient renal artery, vein and ureter. The anastomosis was completed using 10-0 silk sutures. The right native kidney was removed before closing the abdomen.
AMD3100 were injected subcutaneously immediately after reperfusion (day 0) and day 2, 4 and 6 following kidney transplantation. […] Treatments were repeated in combination treated group at 1, 2 and 3 months after transplantation. Some of animals were sacrificed at day 7 and 30 after transplantation and kidney tissue, spleen and peripheral blood were collected.

[2] = system: cell migration stimulated by CXCL12; conditions: Peled et al.; cited from earlier work
[3] = system: liver allografts (DA into GFP-Lewis rats); test: Histology (H&E), GFP microscopy and Xenogen imaging of small liver allografts; assay type: in vivo, rat; conditions: liver allografts 7 days after transplantation, versus control group
Procedure: Transplanted rats were divided by four groups: (1) control group (treated with same volume of saline); (2) low dose of immunosuppressant (FK-506, 0.1 mg/kg/day); (3) stem cell mobilizer (AMD3100, 1 mg/kg/day); and (4) combination of low dose FK-506 and AMD3100. AMD3100 and/or FK-506 were injected subcutaneously immediately after reperfusion and day 1, 2, 3 and 7 following liver transplantation (FIG. 1). Some of the animals were sacrificed at day 3, 7 and 10 after transplantation and liver tissue, spleen and peripheral blood were collected.
Histological changes in liver tissue sections were evaluated by H&E staining. Recipient-derived GFP positive cells in liver tissue sections were analyzed by confocal fluorescence microscopy.
GFP whole-organ fluorescence was measured using the Xenogen system.

[4] = system: c-Kit+, CD133+, Lin− Thy1+c-Kit+CD133+ cells in peripheral blood; test: Mobilization of stem cells into peripheral blood (CBC and flow cytometry); assay type: in vivo, rat; conditions: 3 hours after injection
Procedure: Single-cell suspensions (5×10^5) of peripheral blood monocytes were analyzed for lineage negative CD34, CD133, Thy1, and c-Kit expression. Nonspecific antibody binding was blocked with goat and rat serum (Sigma) for 30 minutes. Peripheral blood cells were isolated from animals at 3 hours after injection with AMD and/or FK. Complete blood count (CBC) was measured and stem cell markers were quantified by flow cytometry. The absolute number of stem cells was calculated as WBC (-thous./μL)×% of stem cells.

[5] = system: CD34+, c-Kit+, Thy-1+ and Sca1+ cells in peripheral blood; conditions: after liver transplantation, compared to control animals, AMD3100 1 mg/kg/day s.c.
Procedure: Single-cell suspensions (5×10^5) of peripheral blood monocytes were analyzed for CD34, CXCR4, c-Kit, Thy-1, and Sea-1 expression. Nonspecific antibody binding was blocked with goat and rat serum (Sigma) for 30 minutes.

[6] = system: small liver allograft (DA into Lewis rats); test: Small liver transplantation, acute rejection model: survival; conditions: for recipient survival / liver allograft acceptance: small liver DA into Lewis, FK-506 0.1 mg/kg/day and/or AMD3100 1 mg/kg/day s.c. day 0,1,2,3,7, controls rejected within 12 days; for survival of one of five recipients: small liver, low dose FK-506 0.1 mg/kg/day alone
Procedure: Orthotopic liver transplantation (OLT) was performed under isoflurane (Abbott laboratories, North Chicago, Ill.) inhalation anesthesia according to a method modified from previously described. Small liver transplantation consisted of removal of the left lateral lobe, the left portion of the median lobe, and the anterior and posterior caudate lobes. This reduced the liver mass by about 50%. The livers were flushed in situ with 10 ml cold saline via the portal vein, explanted and immersed in cold saline solution. The host liver was excised by ligation and division of the right adrenal and lumbar veins. The hepatic artery was ligated and divided. The bile duct was cannulated by insertion of a tube 2 mm in length (outer diameter, 1.2 mm) via choledocotomy and secured with a circumferential 8-0 silk suture. […] The suprahepatic vena cava was pulled down using a cotton tape passed around the host liver and cross-clamped with a baby Statinksy clamp. The vessels were divided and liver was removed. The donor suprahepatic vena cava was anstomosed end-to-end with the host suprahepatic vena cava with running 8-0 prolene. The portal vein and infra hepatic vena cava were anastomosed using the cuff technique described previously. The common bile duct of the donor was cannulated with the small tube residing in the host bile duct and tied in place. The hepatic artery was not reconstructed.
Some of the animals were sacrificed at day 3, 7 and 10 after transplantation and liver tissue, spleen and peripheral blood were collected.
To test this hypothesis, liver transplants from dark agouti (DA) rats into Lewis rats, i.e. the rejection model were performed. Recipient rats were treated with a hematopoietic stem cell mobilizer (plerixafor) and/or low dose immunosuppressant (tacrolimus). Transplanted rats were divided into four groups: 1) a control group treated with saline), 2) treatment with low dose immunosuppressant (tacrolimus, 0.1 mg/kg/day), 3) stem cell mobilizer (plerixafor (AMD3100), 1 mg/kg/day) alone, or 4) a combination of low dose tacrolimus and plerixafor.
In small liver transplantation rats, plerixafor and/or tacrolimus were injected subcutaneously immediately after reperfusion and on days 1, 2, 3 and 7 following transplantation. In whole liver transplantation rats, plerixafor and/or tacrolimus were injected subcutaneously immediately after reperfusion and on days 1, 2, 3, 7, 10 and 15 following transplantation. Animals from each group were sacrificed on post-op days 3, 7 and 10 and liver tissue, spleen and peripheral blood were collected.

[7] = system: skin allograft (DA into Lewis); test: Skin allograft survival; conditions: FK 0.1 mg/kg and/or AMD 1 mg/kg; controls rejected within 7 days
Procedure: DA rats or C57/B6 mice were used as skin donors and GFP transgenic Lewis rats were used as recipients. A graft bed (2.5×3 cm) was prepared on the back of a recipient rat; special care was given to preserving the panniculus carnosus. A 2.5×3 cm^2 graft, which had been prepared from the body trunk of a donor, was transplanted with interrupted sutures of 5-0 silk. The graft was covered with a protective tape and the first inspection was conducted 2 days after skin grafting and was followed by daily inspection. The rejection was defined as the day when the skin graft developed a red-brown color and hard consistency.
FK506 were injected subcutaneously every day following transplantation.

[8] = system: whole liver allograft (DA into Lewis rats); test: Whole liver transplantation, rejection model: survival; conditions: s.c. day 0,1,2,3,7,10,15, controls rejected within twelve days
Procedure: In whole liver transplantation rats, plerixafor and/or tacrolimus were injected subcutaneously immediately after reperfusion and on days 1, 2, 3, 7, 10 and 15 following transplantation.

[9] = system: skin xenograft (C57/B6 mice into Lewis rats); test: Skin xenograft survival, mouse into rat; assay type: in vivo; conditions: FK 0.1 mg/kg and/or AMD 1 mg/kg
CXCR4 chomokin receptor = CXCR4 chomokin receptor (Homo sapiens, UniProt P61073); conditions: Peled et al.; read-out: IC50, binds and inhibits CXCR4; cited from earlier work
Chain of CXCR4 chomokin receptor (P61073 whole entry): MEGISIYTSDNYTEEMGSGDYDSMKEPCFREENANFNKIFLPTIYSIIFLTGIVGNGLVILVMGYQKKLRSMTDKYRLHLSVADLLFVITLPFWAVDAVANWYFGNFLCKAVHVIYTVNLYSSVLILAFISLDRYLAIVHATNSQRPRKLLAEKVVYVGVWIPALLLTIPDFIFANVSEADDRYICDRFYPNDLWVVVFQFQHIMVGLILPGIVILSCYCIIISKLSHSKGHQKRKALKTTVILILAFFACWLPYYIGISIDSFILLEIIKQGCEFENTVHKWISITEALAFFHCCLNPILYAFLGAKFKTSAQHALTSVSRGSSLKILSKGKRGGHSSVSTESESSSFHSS

Compound | recipient survival / kidney allograft acceptance [1] | IC50 [2] [nM] | mononuclear/inflammatory cellular infiltration in portal areas (H&E) ([3]; listed as AMD) | mononuclear/inflammatory cellular infiltration in portal areas (H&E) ([3]; listed as plerixafor) | absolute number of c-Kit+, CD133+ or Lin− and Thy1+c-Kit+CD133+ triple positive cells in peripheral blood ([4]; compared to saline or G-CSF treated animals) | percentage of CD34+, c-Kit+, Thy-1+ and Sca1+ cells in peripheral blood ([5]; listed as AMD) | percentage of CD34+, c-Kit+, Thy-1+ and Sca1+ cells in peripheral blood ([5]; listed as plerixafor) | recipient survival / liver allograft acceptance ([6]; listed as AMD) | recipient survival / liver allograft acceptance ([6]; listed as plerixafor) | skin allograft survival / acceptance [7] | recipient survival [8] | skin xenograft survival [9] | IC50 (CXCR4 chomokin receptor) [nM] | mononuclear/inflammatory cellular infiltration in portal areas (H&E) [3] | mononuclear/inflammatory cellular infiltration in portal areas (H&E) ([3]; listed as FK-506) | c-Kit+ and CD133+ cells in peripheral blood ([4]; low-dose FK (0.1 mg/kg)) | recipient survival / liver allograft acceptance ([6]; listed as FK-506) | recipient survival / liver allograft acceptance ([6]; listed as tacrolimus) | survival of one of five recipients [6] [months] | survival of one of five recipients ([6]; 0.1 mg/kg/day)
c1cc(CN2CCCNCCNCCCNCC2)ccc1CN1CCCNCCNCCCNCC1 [AMD3100, 1,1′-[1,4-phenylenebis(methylene)]bis-1,4,8,11-tetraazacyclo-tetradecane] | did not prolong the recipient survival | 51 ± 17 | the number of infiltrating cells were less | the number of infiltrating cells was reduced | significantly increased | significantly increase | significantly increased | did not significantly prolong the recipient survival | did not significantly prolong recipient survival | did not significantly prolong the allograft survival | did not significantly prolong recipient survival | did not prolong the xenograft survival | – | – | – | – | – | – | – | –
4F-benzoyl-TN14003 [BKT140] | – | – | – | – | – | – | – | – | – | – | – | – | ~1 | – | – | – | – | – | – | –
C=CC[C@@H]1/C=C(\C)C[C@H](C)C[C@H](OC)[C@H]2O[C@@](O)(C(=O)C(=O)N3CCCC[C@H]3C(=O)O[C@H](/C(C)=C/[C@@H]3CC[C@@H](O)[C@H](OC)C3)[C@H](C)[C@@H](O)CC1=O)[C@H](C)C[C@@H]2OC [Tacrolimus] | did not prolong the recipient survival | – | – | – | – | – | – | – | – | did not significantly prolong the allograft survival | did not significantly prolong recipient survival | did not prolong the xenograft survival | – | the number of infiltrating cells was reduced | the number of infiltrating cells were less | significantly increases | did not significantly prolong the recipient survival | did not significantly prolong recipient survival | 4 | more than 1 months
